Results as given in ChEMBL document CHEMBL1147193, “New 5-substituted thiazolo[3,2-b][1,2,4]triazol-6-ones: synthesis and anticancer evaluation” (2007).
Each block holds one compound with its values, some of them ahead of it.

Legend:
Assay type in all cases: functional
SK-OV-3 = experiment: Growth inhibition of human SK-OV-3 cells after 48 hrs by SRB protein assay; conditions: SK-OV-3, 48 h; for TGI: read-out: Log TGI (converted)
A498 = experiment: Growth inhibition of human A498 cells after 48 hrs by SRB protein assay; conditions: A498, 48 h; for TGI: read-out: Log TGI (converted)
NCI-H23 = experiment: Growth inhibition of human NCI-H23 cells after 48 hrs by SRB protein assay; conditions: NCI-H23, 48 h; for TGI: read-out: Log TGI (converted)
NCI-H460 = experiment: Anticancer activity against human NCI-H460 cells assessed as growth of cells at 100 uM relative to untreated cells
MCF7 = experiment: Anticancer activity against human MCF7 cells assessed as growth of cells at 100 uM relative to untreated cells
HL-60 = experiment: Growth inhibition of human HL60 cells after 48 hrs by SRB protein assay; conditions: HL-60, 48 h; for TGI: read-out: Log TGI (converted)
MOLT-4 = experiment: Growth inhibition of human MOLT4 cells after 48 hrs by SRB protein assay; conditions: MOLT-4, 48 h; for TGI: read-out: Log TGI (converted)
SR = experiment: Growth inhibition of human SR cells after 48 hrs by SRB protein assay; conditions: for TGI: read-out: Log TGI (converted)
EKVX = experiment: Growth inhibition of human EKVX cells after 48 hrs by SRB protein assay; conditions: for TGI: read-out: Log TGI (converted)
HCT-116 = experiment: Growth inhibition of human HCT116 cells after 48 hrs by SRB protein assay; conditions: HCT-116, 48 h; for TGI: read-out: Log TGI (converted)
KM12 = experiment: Growth inhibition of human KM12 cells after 48 hrs by SRB protein assay; conditions: KM12, 48 h; for TGI: read-out: Log TGI (converted)
SF-268 = experiment: Growth inhibition of human SF268 cells after 48 hrs by SRB protein assay; conditions: SF-268, 48 h; for TGI: read-out: Log TGI (converted)
SF-295 = experiment: Growth inhibition of human SF295 cells after 48 hrs by SRB protein assay; conditions: SF-295, 48 h; for TGI: read-out: Log TGI (converted)
SF-539 = experiment: Growth inhibition of human SF539 cells after 48 hrs by SRB protein assay; conditions: SF-539, 48 h; for TGI: read-out: Log TGI (converted)
U-251 = experiment: Growth inhibition of human U251 cells after 48 hrs by SRB protein assay; conditions: U-251, 48 h; for TGI: read-out: Log TGI (converted)
LOX IMVI = experiment: Growth inhibition of human LOX IMVI cells after 48 hrs by SRB protein assay; conditions: for TGI: read-out: Log TGI (converted)
SK-MEL-28 = experiment: Growth inhibition of human SK-MEL-28 cells after 48 hrs by SRB protein assay; conditions: SK-MEL-28, 48 h; for TGI: read-out: Log TGI (converted)
UO-31 = experiment: Growth inhibition of human UO31 cells after 48 hrs by SRB protein assay; conditions: UO-31, 48 h; for TGI: read-out: Log TGI (converted)
PC-3 = experiment: Growth inhibition of human PC3 cells after 48 hrs by SRB protein assay; conditions: PC-3, 48 h; for TGI: read-out: Log TGI (converted)
DU-145 = experiment: Growth inhibition of human DU145 cells after 48 hrs by SRB protein assay; conditions: DU-145, 48 h; for TGI: read-out: Log TGI (converted)
[1] = Growth inhibition of human MDA-MB-231/ATCC cells after 48 hrs by SRB protein assay; conditions: MDA-MB-231, 48 h; for TGI: read-out: Log TGI (converted)
SNB-19 = experiment: Growth inhibition of human SNB19 cells after 48 hrs by SRB protein assay; conditions: SNB-19, 48 h; for TGI: read-out: Log TGI (converted)
SNB-75 = experiment: Growth inhibition of human SNB75 cells after 48 hrs by SRB protein assay; conditions: SNB-75, 48 h; for TGI: read-out: Log TGI (converted)

- GI50 (SK-OV-3): > 100 µM
- GI50 (NCI-H23): 20.9 µM
- GI50 (HL-60): 19.5 µM
- GI50 (MOLT-4): 25.1 µM
- GI50 (HCT-116): 15.8 µM
- GI50 (U-251): 16.6 µM
- GI50 (SK-MEL-28): 23.4 µM
- GI50 (PC-3): 26.9 µM
- GI50 (DU-145): 38.9 µM
SMILES: O=C(CC1Sc2ncnn2C1=O)Nc1ccc(Br)cc1 (centres undefined)
- TGI (SK-OV-3): > 100 µM
- GI50 (A498): 12.3 µM
- TGI (A498): 57.5 µM
- TGI (NCI-H23): 43.7 µM
- Activity (NCI-H460): 0%
- Activity (MCF7): 0%
- TGI (HL-60): > 100 µM
- TGI (MOLT-4): 97.7 µM
- GI50 (SR): 18.2 µM
- TGI (SR): > 100 µM
- GI50 (EKVX): 31.6 µM
- TGI (EKVX): > 100 µM
- TGI (HCT-116): 29.5 µM
- GI50 (KM12): > 100 µM
- TGI (KM12): > 100 µM
- GI50 (SF-268): > 100 µM
- TGI (SF-268): > 100 µM
- GI50 (SF-295): > 100 µM
- TGI (SF-295): > 100 µM
- GI50 (SF-539): 20.9 µM
- TGI (SF-539): 46.8 µM
- TGI (U-251): 31.6 µM
- GI50 (LOX IMVI): 16.2 µM
- TGI (LOX IMVI): 31.6 µM
- TGI (SK-MEL-28): 70.8 µM
- GI50 (UO-31): 18.6 µM
- TGI (UO-31): 38 µM
- TGI (PC-3): 95.5 µM
- TGI (DU-145): > 100 µM
- GI50 [1]: 17 µM
- TGI [1]: 36.3 µM

- GI50 (SK-OV-3): 29.5 µM
- GI50 (NCI-H23): 17.8 µM
- GI50 (HL-60): 0.537 µM
- GI50 (MOLT-4): 1.62 µM
- GI50 (HCT-116): 10.7 µM
- GI50 (U-251): 10.5 µM
- GI50 (SK-MEL-28): 16.6 µM
- GI50 (PC-3): 11.7 µM
- GI50 (DU-145): 12.9 µM
SMILES: O=c1/c(=C/c2ccc(Cl)cc2)sc2ncnn12
- TGI (SK-OV-3): 55 µM
- GI50 (A498): 19.1 µM
- TGI (A498): 33.1 µM
- TGI (NCI-H23): 38 µM
- Activity (NCI-H460): 3%
- Activity (MCF7): 10%
- TGI (HL-60): 2.04 µM
- TGI (MOLT-4): 8.71 µM
- GI50 (SR): 8.32 µM
- TGI (SR): 33.9 µM
- GI50 (EKVX): 14.5 µM
- TGI (EKVX): 33.9 µM
- TGI (HCT-116): 25.7 µM
- GI50 (KM12): 10.5 µM
- TGI (KM12): 25.7 µM
- GI50 (SF-268): 16.2 µM
- TGI (SF-268): 58.9 µM
- GI50 (SF-295): 17.8 µM
- TGI (SF-295): 35.5 µM
- GI50 (SF-539): 10.2 µM
- TGI (SF-539): 21.9 µM
- GI50 (SNB-19): 16.2 µM
- TGI (SNB-19): 32.4 µM
- GI50 (SNB-75): 14.1 µM
- TGI (SNB-75): 32.4 µM
- TGI (U-251): 23.4 µM
- GI50 (LOX IMVI): 10.7 µM
- TGI (LOX IMVI): 25.1 µM
- TGI (SK-MEL-28): 35.5 µM
- GI50 (UO-31): 12.3 µM
- TGI (UO-31): 33.1 µM
- TGI (PC-3): 28.8 µM
- TGI (DU-145): 32.4 µM
- GI50 [1]: 19.1 µM
- TGI [1]: 43.7 µM

- GI50 (SK-OV-3): > 100 µM
- GI50 (HL-60): 6.46 µM
- GI50 (MOLT-4): 38.9 µM
- GI50 (HCT-116): 33.9 µM
- GI50 (U-251): 60.3 µM
- GI50 (SK-MEL-28): 52.5 µM
- GI50 (PC-3): 53.7 µM
- GI50 (DU-145): 39.8 µM
SMILES: O=c1/c(=C/c2ccc(F)cc2)sc2ncnn12
- TGI (SK-OV-3): > 100 µM
- GI50 (A498): 61.7 µM
- TGI (A498): > 100 µM
- Activity (NCI-H460): 13%
- Activity (MCF7): 77%
- TGI (HL-60): > 100 µM
- TGI (MOLT-4): > 100 µM
- GI50 (SR): 15.5 µM
- TGI (SR): > 100 µM
- GI50 (EKVX): 83.2 µM
- TGI (EKVX): > 100 µM
- TGI (HCT-116): > 100 µM
- GI50 (KM12): 35.5 µM
- TGI (KM12): > 100 µM
- GI50 (SF-268): 33.9 µM
- TGI (SF-268): > 100 µM
- GI50 (SF-295): 52.5 µM
- TGI (SF-295): > 100 µM
- GI50 (SF-539): 30.2 µM
- TGI (SF-539): 93.3 µM
- GI50 (SNB-19): 63.1 µM
- TGI (SNB-19): > 100 µM
- GI50 (SNB-75): 58.9 µM
- TGI (SNB-75): > 100 µM
- TGI (U-251): > 100 µM
- GI50 (LOX IMVI): 37.2 µM
- TGI (LOX IMVI): > 100 µM
- TGI (SK-MEL-28): > 100 µM
- GI50 (UO-31): 69.2 µM
- TGI (UO-31): > 100 µM
- TGI (PC-3): > 100 µM
- TGI (DU-145): > 100 µM
- GI50 [1]: > 100 µM
- TGI [1]: > 100 µM

- GI50 (SK-OV-3): > 100 µM
- GI50 (NCI-H23): 20 µM
- GI50 (HL-60): 27.5 µM
- GI50 (MOLT-4): 28.8 µM
- GI50 (HCT-116): 17 µM
- GI50 (U-251): 22.4 µM
- GI50 (SK-MEL-28): 26.9 µM
- GI50 (PC-3): 23.4 µM
- GI50 (DU-145): 57.5 µM
SMILES: COc1ccc(NC(=O)CC2Sc3ncnn3C2=O)cc1 (centres undefined)
- TGI (SK-OV-3): > 100 µM
- GI50 (A498): 21.4 µM
- TGI (A498): 57.5 µM
- TGI (NCI-H23): 37.2 µM
- Activity (NCI-H460): 0%
- Activity (MCF7): 0%
- TGI (HL-60): > 100 µM
- TGI (MOLT-4): 70.8 µM
- GI50 (EKVX): 35.5 µM
- TGI (EKVX): > 100 µM
- TGI (HCT-116): 30.9 µM
- GI50 (KM12): > 100 µM
- TGI (KM12): > 100 µM
- GI50 (SF-268): > 100 µM
- TGI (SF-268): > 100 µM
- GI50 (SF-295): > 100 µM
- TGI (SF-295): > 100 µM
- GI50 (SF-539): 26.9 µM
- TGI (SF-539): 55 µM
- TGI (U-251): 44.7 µM
- GI50 (LOX IMVI): 21.9 µM
- TGI (LOX IMVI): 42.7 µM
- TGI (SK-MEL-28): > 57.5 µM
- GI50 (UO-31): 23.4 µM
- TGI (UO-31): 53.7 µM
- TGI (PC-3): 56.2 µM
- TGI (DU-145): > 100 µM
- GI50 [1]: 21.4 µM
- TGI [1]: 38.9 µM
